Source: patent publication EP3597650B1, “ALDOSE REDUCTASE INHIBITORS AND USES THEREOF” (The Trustees of Columbia University in the City of New York, priority 2010, dated 2012)

What was measured:
[1] = Solubility in Krebs-Henseleit buffer; format: physicochemical; settings: Krebs-Henseleit buffer with glucose, palmitate, bovine serum albumin, insulin
[2] = Solubility in water, LC-MS absorbance peak area at 254 nm; format: physicochemical; settings: for Area (Integration of Absorbance Peaks): water pH 7.1, ambient temperature, 254 nm
Experimental: Each sample of Compound A & zopolrestat were placed, separately, in water (MQW ultra nanopure) at ambient temperature and vortexed for 3 minutes. The aliquots were then filtered through a tightly-packed cotton plug (placed in a pipette) to remove any residual solids. The attempted concentrations of the respective solutions of Compound A and zopolrestat made were 0.05 mg/mL, 0.1 mg/mL, 0.5 mg/mL, 1.0 mg/mL, 5.0 mg/mL, and 10.0 mg/mL. The pH of the water used was 7.1 (measured electronically by an Orion perpHect LogR Meter Model # 370).
The filtered samples were run through a binary gradient (program: 5%-100% MeCN over 30 mins) on a LC-MS (Shimadzu LCMS-2010A Liquid Chromatography Mass Spectrometer, reverse-phase column). A 5 µL volume of each sample solution was injected for each run. Each trace contained a peak (for Compound A, TR approx. 14.070 mins; for zopolrestat, TR approx. 16.666 mins) measured at a wavelength of 254 nm for which the respective parent ion masses were observed.
By comparing the absorbance areas under the peaks corresponding to Compound A & zopolrestat in each water solution made (Table 1), a solubility curve for each compound was generated (Fig. 1). […] Table 1. Integration of Absorbance Peaks for Various Concentrations of Compounds.

[3] = target: human recombinant aldose reductase (Homo sapiens, UniProt P15121); assay: biochemical
Experimental: The rcductasc activity of Compound A and zopolrestat were spectrophotometrically assayed by following the decrease of NADPH at 25°C for 4 min as described in Sato, S. (1992), "Rat kidney aldose reductase and aldehyde reductase and polyolproduction in rat kidney" Am. J. Physiol. 263, F799.F805, incorporated by reference herein in its entirety. [drawing 59]
Briefly, the reaction mixture (total volume 1 ml) contained 0.1 mM NADPH, 100 mM substrate (DL-glyceraldehyde or L-xylose) and human recombinant aldose reductase (100 mU) in 0.1 M phosphate buffer, pH 6.2. The head to head experiment was carried out in a microplate assay for AR inhibition using D-Glyceraldehyde and NADPH and the absorbance changes were monitored at 340nm and % inhibition was calculated for ARIs at concentrations ranging from 0.1 nM to 100 µM (Table 2 and Figure 2). Data is presented as mean ± standard deviation and is an average of 5 separate runs. The reaction was started by adding the substrate (glyceraldehyde or xylose) as well as the same reaction mixture in which the substrate replaced by deionized water was used as a control. One enzyme unit (U) was defined as the activity consuming 1 µmole of NADPH per min at 25 °C. Table 2. Aldose Reductase Activity for Zopolrestat and Compound A.

[4] = tested on: isolated rat heart; assay: Ex vivo isovolumic isolated rat heart, ischemia reperfusion (I/R) injury; settings: 100 nM in perfusate; 20 min zero-flow ischemia, 60 min reperfusion
Experimental: Experiments were performed using an isovolumic isolated rat heart preparation as as described by Hwang YC, Sato S, Tsai JY, Yan S, Bakr S, Zhang H, Oates PJ , Ramasamy R (2002), "Aldose reductase activation is a key component of myocardial response to ischemia," Faseb J. 16, 243-245 and Ramasamy R, Hwang YC, Whang J , Bergmann SR (2001), "Protection of ischemic hearts by high glucose is mediated, in part, by GLUT-4," American Journal of Physiology. 281, H290-297.
Male Wistar rats (300.350 g, 3 to 4 months old) were anesthetized with a mixture of ketamine (80 mg/kg) and xylazine (10 mg/kg). After deep anesthesia was achieved, hearts were rapidly excised, placed into iced saline, and retrogradely perfused at 37 °C in a non-recirculating mode through the aorta at a rate of 12.5 ml/min. Hearts were perfused with modified Krebs-Henseleit buffer containing (in mM) NaCl 118, KCl 4.7, CaCl2 2.5, MgCl2 1.2, NaHCO3 25, glucose 5, palmitate 0.4, bovine serum albumin 0.4, and 70 mU/L insulin. […] Left ventricular developed pressure (LVDP) and left ventricular end diastolic pressure (LVEDP) were measured using a latex balloon in the left ventricle. LVDP, heart rate, and coronary perfusion pressure were monitored continuously on a ADI recorder. […]
Briefly, isolated perfused hearts were subjected to ischemia reperfusion (I/R) injury and the measures of cardiac injury and cardiac function monitored. […]

[5] = attempted concentration 0.05 mg/mL
[6] = attempted concentration 0.1 mg/mL
[7] = attempted concentration 0.5 mg/mL
[8] = attempted concentration 1 mg/mL
[9] = attempted concentration 5 mg/mL
[10] = attempted concentration 10 mg/mL

| Compound | solubility in Krebs-Henseleit buffer [1] | Area (Integration of Absorbance Peaks) [2, 5] | Area (Integration of Absorbance Peaks) [2, 6] | Area (Integration of Absorbance Peaks) [2, 7] | Area (Integration of Absorbance Peaks) [2, 8] | Area (Integration of Absorbance Peaks) [2, 9] | Area (Integration of Absorbance Peaks) [2, 10] | inhibition at 0.0001 µM [3] [%] | inhibition at 0.001 µM [3] [%] | inhibition at 0.01 µM [3] [%] | inhibition at 0.1 µM [3] [%] | inhibition at 1 µM [3] [%] | inhibition at 10 µM [3] [%] | inhibition at 100 µM [3] [%] | solubility in pH 7.1 water relative to Zopolrestat ([2]; ambient temperature, all concentrations) | more active than zopolrestat in vitro against aldose reductase ([3]; fold relative to zopolrestat) | CK Release [4] | LVDP Recovery [4] |
| --- | --- | --- | --- | --- | --- | --- | --- | --- | --- | --- | --- | --- | --- | --- | --- | --- | --- | --- |
| O=C(O)Cc1nn(Cc2nc3cc(C(F)(F)F)ccc3s2)c(=O)c2ccccc12 [zopolrestat, reference compound] | heat was applied to render zopolrestat soluble | 1039247 | 1899466 | 4304556 | 6129559 | 13314544 | 13362465 | 31.7 ± 5.1 | 39.3 ± 4.3 | 52.2 ± 1.9 | 76.7 ± 2.7 | 86.3 ± 3.6 | 90.1 ± 3.4 | 93.2 ± 3.8 |  |  |  |  |
| O=C(O)Cc1nn(Cc2nc3cc(C(F)(F)F)ccc3s2)c(=O)c2nccnc12 [Compound A, 2-(8-oxo-7-((5-(trifluoromethyl)benzo[d]thiazol-2-yl)methyl)-7,8-dihydropyrazino[2,3-d]pyridazin-5-yl)acetic acid] | soluble without ay precipitation or turbidity | 1811131 | 3221003 | 5814304 | 10515430 | 17216187 | 20397336 | 69 ± 1.3 | 79.6 ± 2.4 | 80 ± 1.8 | 89.2 ± 0.7 | 93.6 ± 2.8 | 95.3 ± 1.1 | 96.2 ± 3.3 | significantly greater solubility | approximately 100 x | Compound A treated Rat hearts = 425±63 IU/g wet weight | Compound A Treated Rat Hearts = 76±5 % of pre-ischemic values |
